Test results taken from patent US11566028B2, “Bicyclic heterocycles as FGFR inhibitors” (Incyte Corporation, priority 2019, dated 2023).

Experiments:
Type in all cases: biochemical
Conditions in all cases: pre-incubated for 4 hours
[1] = target: wild-type un-phosphorylated FGFR3 protein (Homo sapiens (Human), UniProt P22607); assay: FGFR Enzymatic Assay (FRET peptide phosphorylation), FGFR3
FGFR1 = FGFR1 (Homo sapiens (Human), UniProt P11362); assay: FGFR Enzymatic Assay (FRET peptide phosphorylation), FGFR1
Chain of FGFR1 (P11362 22-822): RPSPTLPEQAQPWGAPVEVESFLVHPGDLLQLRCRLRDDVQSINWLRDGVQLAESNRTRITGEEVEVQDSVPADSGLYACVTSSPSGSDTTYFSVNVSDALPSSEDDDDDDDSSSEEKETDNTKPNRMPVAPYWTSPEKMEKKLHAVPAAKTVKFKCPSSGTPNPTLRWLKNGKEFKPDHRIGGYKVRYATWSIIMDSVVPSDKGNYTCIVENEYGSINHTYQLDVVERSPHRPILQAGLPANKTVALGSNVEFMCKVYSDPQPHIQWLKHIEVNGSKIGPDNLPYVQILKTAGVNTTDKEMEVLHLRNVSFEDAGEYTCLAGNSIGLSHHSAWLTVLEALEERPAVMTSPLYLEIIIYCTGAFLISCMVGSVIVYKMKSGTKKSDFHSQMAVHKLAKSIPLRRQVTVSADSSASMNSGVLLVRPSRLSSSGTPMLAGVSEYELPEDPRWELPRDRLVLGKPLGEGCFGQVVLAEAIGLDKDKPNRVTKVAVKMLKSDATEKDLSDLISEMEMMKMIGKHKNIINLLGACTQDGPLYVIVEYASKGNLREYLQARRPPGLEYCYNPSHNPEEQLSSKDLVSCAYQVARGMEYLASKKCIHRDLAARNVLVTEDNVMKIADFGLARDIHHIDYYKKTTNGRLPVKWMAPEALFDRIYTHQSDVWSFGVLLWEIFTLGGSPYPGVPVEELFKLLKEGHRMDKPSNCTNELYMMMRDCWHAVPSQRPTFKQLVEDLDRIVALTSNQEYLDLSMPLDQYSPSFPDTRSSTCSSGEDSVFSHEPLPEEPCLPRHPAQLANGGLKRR

FGFR4 = FGFR4 (Homo sapiens (Human), UniProt P22455); assay: FGFR Enzymatic Assay (FRET peptide phosphorylation), FGFR4
Chain of FGFR4 (P22455 22-802): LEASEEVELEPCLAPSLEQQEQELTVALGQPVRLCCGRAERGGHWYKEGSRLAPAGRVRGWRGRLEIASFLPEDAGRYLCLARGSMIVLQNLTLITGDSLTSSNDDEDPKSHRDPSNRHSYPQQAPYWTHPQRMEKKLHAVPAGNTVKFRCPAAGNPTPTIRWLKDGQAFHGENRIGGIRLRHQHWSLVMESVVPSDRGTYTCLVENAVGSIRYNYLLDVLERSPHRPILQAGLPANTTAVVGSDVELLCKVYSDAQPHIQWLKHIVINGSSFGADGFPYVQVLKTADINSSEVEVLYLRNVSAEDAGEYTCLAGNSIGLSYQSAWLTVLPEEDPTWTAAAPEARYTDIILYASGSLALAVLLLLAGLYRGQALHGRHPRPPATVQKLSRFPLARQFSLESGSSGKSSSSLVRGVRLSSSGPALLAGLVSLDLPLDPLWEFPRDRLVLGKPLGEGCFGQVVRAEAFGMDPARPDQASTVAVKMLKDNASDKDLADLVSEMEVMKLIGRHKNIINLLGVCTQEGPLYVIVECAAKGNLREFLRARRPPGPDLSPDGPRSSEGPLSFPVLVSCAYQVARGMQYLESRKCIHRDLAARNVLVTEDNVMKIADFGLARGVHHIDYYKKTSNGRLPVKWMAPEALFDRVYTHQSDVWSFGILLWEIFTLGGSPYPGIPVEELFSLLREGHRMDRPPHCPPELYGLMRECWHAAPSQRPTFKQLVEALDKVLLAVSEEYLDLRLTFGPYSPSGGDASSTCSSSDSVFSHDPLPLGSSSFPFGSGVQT

FGFR2 = FGFR2 (Homo sapiens (Human), UniProt P21802); assay: FGFR Enzymatic Assay (FRET peptide phosphorylation), FGFR2
Chain of FGFR2 (P21802 22-821): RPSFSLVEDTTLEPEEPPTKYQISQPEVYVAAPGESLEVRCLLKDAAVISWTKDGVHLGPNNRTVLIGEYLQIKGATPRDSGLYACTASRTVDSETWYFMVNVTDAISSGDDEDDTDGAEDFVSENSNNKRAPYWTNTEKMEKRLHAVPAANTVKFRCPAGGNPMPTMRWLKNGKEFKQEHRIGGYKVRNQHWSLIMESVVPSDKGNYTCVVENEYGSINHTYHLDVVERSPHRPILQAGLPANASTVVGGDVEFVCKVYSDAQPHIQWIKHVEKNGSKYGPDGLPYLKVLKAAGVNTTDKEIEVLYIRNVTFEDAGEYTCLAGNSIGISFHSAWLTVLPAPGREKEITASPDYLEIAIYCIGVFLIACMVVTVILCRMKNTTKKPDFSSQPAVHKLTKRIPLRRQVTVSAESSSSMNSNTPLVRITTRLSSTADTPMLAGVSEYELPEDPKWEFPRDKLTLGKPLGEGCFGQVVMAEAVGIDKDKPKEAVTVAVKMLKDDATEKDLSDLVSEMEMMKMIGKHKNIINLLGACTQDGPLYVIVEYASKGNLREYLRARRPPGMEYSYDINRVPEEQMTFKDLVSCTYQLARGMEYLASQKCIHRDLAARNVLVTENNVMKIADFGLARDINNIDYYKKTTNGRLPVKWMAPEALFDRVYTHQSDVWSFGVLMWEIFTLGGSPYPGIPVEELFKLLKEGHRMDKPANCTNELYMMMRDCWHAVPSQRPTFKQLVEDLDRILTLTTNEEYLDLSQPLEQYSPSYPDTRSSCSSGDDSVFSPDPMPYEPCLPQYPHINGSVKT

Chain of wild-type un-phosphorylated FGFR3 protein (P22607 23-806): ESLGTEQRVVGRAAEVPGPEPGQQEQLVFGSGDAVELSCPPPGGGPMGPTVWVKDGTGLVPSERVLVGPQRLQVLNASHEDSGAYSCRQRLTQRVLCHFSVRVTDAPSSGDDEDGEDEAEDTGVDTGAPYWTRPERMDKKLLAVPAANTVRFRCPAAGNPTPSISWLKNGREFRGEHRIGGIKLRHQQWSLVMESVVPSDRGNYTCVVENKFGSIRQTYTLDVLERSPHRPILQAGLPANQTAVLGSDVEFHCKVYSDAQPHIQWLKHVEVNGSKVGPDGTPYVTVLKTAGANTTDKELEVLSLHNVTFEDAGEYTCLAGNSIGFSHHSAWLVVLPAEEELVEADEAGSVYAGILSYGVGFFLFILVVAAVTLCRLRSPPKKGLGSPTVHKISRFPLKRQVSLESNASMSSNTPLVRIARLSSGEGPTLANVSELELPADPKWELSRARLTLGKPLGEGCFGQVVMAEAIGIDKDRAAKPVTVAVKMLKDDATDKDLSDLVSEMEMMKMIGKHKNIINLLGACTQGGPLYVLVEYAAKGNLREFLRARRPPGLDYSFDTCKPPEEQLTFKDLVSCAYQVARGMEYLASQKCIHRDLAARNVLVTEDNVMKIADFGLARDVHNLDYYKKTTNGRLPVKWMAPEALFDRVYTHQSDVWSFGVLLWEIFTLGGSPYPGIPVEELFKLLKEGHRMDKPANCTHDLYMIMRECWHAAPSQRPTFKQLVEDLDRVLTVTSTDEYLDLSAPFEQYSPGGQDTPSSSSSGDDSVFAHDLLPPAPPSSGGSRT

Row | SMILES | IC50 [1] [nM] | IC50 (FGFR1) [nM] | IC50 (FGFR4) [nM] | IC50 (FGFR2) [nM]
1 | CNC(=O)c1cc(C)c(F)c(-c2cnn3cc(-c4cnn([C@@H]5CCN(C)C[C@H]5F)c4)c(N[C@H]4CCOC4)nc23)c1 [Example 65, 4-Fluoro-3-(6-(1-((3R,4R)-3-fluoro-1-methylpiperidin-4-yl)-1H-pyrazol-4-yl)-5-(((S)-tetrahydrofuran-3-yl)amino)pyrazolo[1,5-a]pyrimidin-3-yl)-N,5-dimethylbenzamide] | < 10 | 10 to 30 | 30 to 200 | < 10
2 | [2H]C([2H])([2H])NC(=O)c1cc(-c2cnn3cc(-c4ccc(CN5C[C@H]6C[C@@H]5CO6)nc4)c(O[C@H]4CCOC4)nc23)c(F)c(C(F)F)c1 [Example 66, 3-(6-(6-(((1R,4R)-2-Oxa-5-azabicyclo[2.2.1]heptan-5-yl)methyl)pyridin-3-yl)-5-(((S)-tetrahydrofuran-3-yl)oxy)pyrazolo[1,5-a]pyrimidin-3-yl)-5-(difluoromethyl)-4-fluoro-N-(methyl-d3)benzamide] | < 10 | 30 to 200 | 30 to 200 | < 10
